Reference: publication PMC3431135, “Pharmacological Evaluation and Docking Studies of 3-Thiadiazolyl- and Thioxo-1,2,4-triazolylcoumarin Derivatives as Cholinesterase Inhibitors” (ISRN Pharmacology, 2012)
Where two headings read alike, the source gives them in different places.

Legend:
[1] = target: T1, AChE from electrophorus electricus (EeAChE) (Electrophorus electricus, UniProt O42275); assay: biochemical
T1 construct: Acetylcholinesterase (AChE) (EC 3.1.1.7, type VI-S from Electric Eel); purchased Sigma-Aldrich (Steinheim, Germany) type VI-S; host or cells: electric eel (natural source)
T1 sequence (O42275 24-633): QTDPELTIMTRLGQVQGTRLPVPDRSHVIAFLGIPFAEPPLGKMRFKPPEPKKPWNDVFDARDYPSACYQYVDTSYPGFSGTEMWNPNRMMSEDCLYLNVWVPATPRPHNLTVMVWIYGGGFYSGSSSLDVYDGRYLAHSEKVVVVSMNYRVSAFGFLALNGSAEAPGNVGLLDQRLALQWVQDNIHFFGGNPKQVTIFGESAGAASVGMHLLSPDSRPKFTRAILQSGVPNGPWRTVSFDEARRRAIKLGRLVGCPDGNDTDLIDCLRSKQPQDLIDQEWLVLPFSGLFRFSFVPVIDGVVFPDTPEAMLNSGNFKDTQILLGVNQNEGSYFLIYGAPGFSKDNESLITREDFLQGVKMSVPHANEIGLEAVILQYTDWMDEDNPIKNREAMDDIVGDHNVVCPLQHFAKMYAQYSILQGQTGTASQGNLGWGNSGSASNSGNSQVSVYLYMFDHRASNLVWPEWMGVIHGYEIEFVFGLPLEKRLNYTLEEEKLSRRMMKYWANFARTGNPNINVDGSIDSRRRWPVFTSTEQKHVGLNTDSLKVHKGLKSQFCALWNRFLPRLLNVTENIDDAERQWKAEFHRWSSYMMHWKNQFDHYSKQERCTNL
Method: (§1) Acetylcholinesterase (AChE) (EC 3.1.1.7, type VI-S from Electric Eel), butyrylcholinesterase (BChE) (EC 3.1.1.8, from horse serum). AChE and BChE were also isolated from rabbit brain and serum, respectively.
(§2) The inhibitory activities of coumarin derivatives were measured quantitatively by Ellman's method and performed with some modifications as in Ingkaninan et al. method by using 96-microliter well plate. Series of newly synthesized coumarin derivatives were tested as AChE and BChE inhibitors. Initially, each compound was dissolved in DMSO (end concentration of DMSO was less than 1% in assay) and tested at a final concentration of 1 mM or 10 μL of DMSO (as negative control) in wells for initial screening. […] Reaction mixture comprised of 50 μL of 3 mM DTNB (5,5′-dithiobis(2-nitrobenzoic acid)) in assay buffer, 10 μL of test compound, and 10 μL of AChE (0.031 IU/mL) or BChE (0.5 IU/mL). This mixture was preincubated at 25°C for 10 min. After preincubation, enzymatic reaction was started by addition of 10 μL of 10 mM MBTCCl (butyrylthiocholine chloride) or ATCI (acetylthiocholine iodide) according to the respective enzyme and mixture was incubated again for 15 min. […] Enzyme dilution buffer consisted of 50 mM Tris-HCl containing 0.1% (w/v) BSA (pH 8). The effect of DMSO on activity of enzyme was subtracted by a negative control containing DMSO, instead of inhibitor. Each concentration was analyzed in triplicate and Ki values were calculated from IC50 values by using a nonlinear curve fitting program PRISM 5.0 (GraphPad, San Diego, California, USA).

[2] = target: T2, BChE from rabbit serum (rBChE) (Oryctolagus cuniculus, UniProt P21927); assay: biochemical
T2 construct: BChE was obtained from rabbit blood serum by applying the techniques of centrifugation; from tissue; host or cells: rabbit blood serum
T2 sequence (P21927 9-581): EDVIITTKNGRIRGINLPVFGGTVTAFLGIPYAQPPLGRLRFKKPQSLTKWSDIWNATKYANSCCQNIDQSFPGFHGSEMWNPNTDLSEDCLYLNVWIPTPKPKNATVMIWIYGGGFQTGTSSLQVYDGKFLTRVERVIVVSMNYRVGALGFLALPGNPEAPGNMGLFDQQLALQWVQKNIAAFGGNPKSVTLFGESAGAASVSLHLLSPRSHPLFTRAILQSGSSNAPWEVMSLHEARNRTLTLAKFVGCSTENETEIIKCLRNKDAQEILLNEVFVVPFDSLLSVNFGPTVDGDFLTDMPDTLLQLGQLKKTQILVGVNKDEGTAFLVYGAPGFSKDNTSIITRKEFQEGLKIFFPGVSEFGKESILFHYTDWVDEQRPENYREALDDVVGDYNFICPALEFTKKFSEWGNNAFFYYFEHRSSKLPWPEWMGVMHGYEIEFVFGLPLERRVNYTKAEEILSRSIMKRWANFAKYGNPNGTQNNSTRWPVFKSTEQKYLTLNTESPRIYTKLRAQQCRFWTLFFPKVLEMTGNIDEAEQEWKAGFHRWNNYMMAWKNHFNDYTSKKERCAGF
Method: as §1
(§3) AChE was isolated from rabbit brain. Heads were decapitated and brains were thawed and homogenized for 30 sec in 2.5 volumes of 1 mM EDTA, 0.32 M ice cold sucrose, 10 μM tetracain (pH7.0). The homogenates were centrifuged at 105,000 ×g for 60 min (4°C). The supernatants were removed and pellets were again homogenized in same volume of 0.2% triton phosphate buffer. After centrifugation, the supernatants were again removed and pellets were rehomogenized for 10 sec in 2.5 volumes of 1% triton phosphate buffer. […] BChE was obtained from rabbit blood serum by applying the techniques of centrifugation. The purified enzymes were stored at –80°C.
as §2

[3] = target: T3, rabbit AChE (rAChE), isolated from rabbit brain (Oryctolagus cuniculus, UniProt Q29499); assay: biochemical
T3 construct: AChE was isolated from rabbit brain; from tissue; host or cells: rabbit brain
T3 sequence (Q29499 2-584): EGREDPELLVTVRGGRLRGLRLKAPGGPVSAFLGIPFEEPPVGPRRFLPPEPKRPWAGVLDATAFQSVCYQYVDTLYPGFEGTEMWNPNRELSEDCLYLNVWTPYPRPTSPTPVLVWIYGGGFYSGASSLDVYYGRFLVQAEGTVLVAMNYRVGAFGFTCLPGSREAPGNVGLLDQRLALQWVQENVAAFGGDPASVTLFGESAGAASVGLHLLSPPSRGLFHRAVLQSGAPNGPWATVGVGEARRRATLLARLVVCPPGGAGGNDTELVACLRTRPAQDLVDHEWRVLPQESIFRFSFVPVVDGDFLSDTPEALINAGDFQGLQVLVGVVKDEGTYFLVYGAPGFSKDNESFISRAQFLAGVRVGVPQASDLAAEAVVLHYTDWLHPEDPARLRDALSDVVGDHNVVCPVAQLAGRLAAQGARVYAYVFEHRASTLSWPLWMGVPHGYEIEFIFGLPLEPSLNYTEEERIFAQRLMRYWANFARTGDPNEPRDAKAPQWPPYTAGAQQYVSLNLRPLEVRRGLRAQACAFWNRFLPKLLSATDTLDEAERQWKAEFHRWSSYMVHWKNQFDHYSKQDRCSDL
Method: as §1, §3, §2

[4] = target: T4, BChE from horse serum (hBChE) (Equus caballus, UniProt P81908); assay: biochemical; assay type: biochemical
T4 construct: butyrylcholinesterase (BChE) (EC 3.1.1.8, from horse serum); purchased Sigma-Aldrich (Steinheim, Germany); host or cells: horse serum (natural source)
T4 sequence (P81908 whole entry): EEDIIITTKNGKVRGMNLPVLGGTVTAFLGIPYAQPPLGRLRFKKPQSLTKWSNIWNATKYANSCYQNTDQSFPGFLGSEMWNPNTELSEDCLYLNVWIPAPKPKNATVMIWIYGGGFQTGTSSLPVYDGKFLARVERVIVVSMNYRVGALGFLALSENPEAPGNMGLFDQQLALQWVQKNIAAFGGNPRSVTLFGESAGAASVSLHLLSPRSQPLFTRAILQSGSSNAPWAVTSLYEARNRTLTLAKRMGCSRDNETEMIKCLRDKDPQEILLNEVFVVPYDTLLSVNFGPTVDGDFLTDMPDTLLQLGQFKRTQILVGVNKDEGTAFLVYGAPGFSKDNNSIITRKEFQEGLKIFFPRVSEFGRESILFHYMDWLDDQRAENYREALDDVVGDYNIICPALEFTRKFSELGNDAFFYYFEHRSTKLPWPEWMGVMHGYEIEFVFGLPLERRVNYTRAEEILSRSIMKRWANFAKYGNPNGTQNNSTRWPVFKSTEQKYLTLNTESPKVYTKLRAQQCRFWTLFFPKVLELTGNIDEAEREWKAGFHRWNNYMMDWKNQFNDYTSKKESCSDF
Method: as §1, §2

AChE = assay: Kinetic characterization of AChE inhibition (Lineweaver-Burk); assay type: biochemical; settings: Lineweaver-Burk plots; inhibitor 0–100 nM; substrate ATCI
Method: (§4) […]. […] As Km value was increasing and value of Vmax remained almost same in the presence or absence of inhibitor, indication of competitive type of inhibitory mechanism against AChE and BChE.
(§5) Kinetic characterization of AChE and BChE was performed by using Ellman's method. […]. Enzyme kinetic characterization studies were performed under same incubation conditions as described above by using ATCI and BTCCl as substrates and DTNB was used as chromophoric reagent. A parallel control with no inhibitor in the mixture was added for comparison. Each concentration was analyzed in triplicate; and Lineweaver-Burk (1/V versus 1/[S]) plot was constructed using Prism software.

BChE = assay: Kinetic characterization of BChE inhibition (Lineweaver-Burk); assay type: biochemical; settings: Lineweaver-Burk plots; inhibitor 0–5 nM; substrate BTCCl
Method: as §4, §5

[5] = mean ± SEM of three experiments, Ki calculated from IC50, substrate ATCI, read-out: EeAChE Ki ± SEM
[6] = rabbit serum BChE, mean ± SEM of three experiments, Ki calculated from IC50, substrate BTCCl, read-out: rBChE Ki ± SEM
[7] = mean ± SEM of three experiments, Ki calculated from IC50, substrate ATCI, read-out: rAChE Ki ± SEM
[8] = horse serum BChE, mean ± SEM of three experiments, Ki calculated from IC50, substrate BTCCl, read-out: hBChE Ki ± SEM

O=c1oc2ccccc2cc1-c1n[nH]c(=S)n1-c1ccccc1Cl [Compound 3a, 3-(4-(2-Chlorophenyl)-5-thioxo-4,5-dihydro-1H-1,2,4-triazol-3-yl)-2H-chromen-2-one]
Ki [1, 5]: 2420 ± 430 nM | Ki [2, 6]: 21400 ± 1600 nM | Ki [3, 7]: 470 ± 70 nM | Ki [4, 8]: 190 ± 10 nM

O=c1oc2ccccc2cc1-c1n[nH]c(=S)n1-c1cccc(Cl)c1 [Compound 3b, 3-(4-(3-Chlorophenyl)-5-thioxo-4,5-dihydro-1H-1,2,4-triazol-3-yl)-2H-chromen-2-one]
Ki [1, 5]: 320 ± 70 nM | Ki [2, 6]: 65700 ± 2000 nM | Ki [3, 7]: 600 ± 30 nM | Ki [4, 8]: 36 ± 3 nM | fold more active on hBChE than neostigmine ([4]; ratio of Ki values versus neostigmine): 2 fold

O=c1oc2ccccc2cc1-c1n[nH]c(=S)n1-c1ccc(Cl)cc1 [Compound 3c, 3-(4-(4-Chlorophenyl)-5-thioxo-4,5-dihydro-1H-1,2,4-triazol-3-yl)-2H-chromen-2-one]
Ki [1, 5]: 450 ± 90 nM | Ki [2, 6]: 520 ± 30 nM | Ki [3, 7]: 13 ± 2 nM | Ki [4, 8]: 1340 ± 20 nM

Cc1cccc(-n2c(-c3cc4ccccc4oc3=O)n[nH]c2=S)c1 [Compound 3d, 3-(5-Thioxo-4-m-tolyl-4,5-dihydro-1H-1,2,4-triazol-3-yl)-2H-chromen-2-one]
Ki [1, 5]: 5770 ± 310 nM | Ki [2, 6]: 1110 ± 50 nM | Ki [3, 7]: 82 ± 2 nM | Ki [4, 8]: 180 ± 20 nM

Cc1ccc(-n2c(-c3cc4ccccc4oc3=O)n[nH]c2=S)cc1 [Compound 3e, 3-(5-Thioxo-4-p-tolyl-4,5-dihydro-1H-1,2,4-triazol-3-yl)-2H-chromen-2-one]
Ki [1, 5]: 18400 ± 3400 nM | Ki [2, 6]: 140 ± 50 nM | Ki [3, 7]: 39 ± 2 nM | Ki [4, 8]: 130 ± 10 nM

COc1ccccc1-n1c(-c2cc3ccccc3oc2=O)n[nH]c1=S [Compound 3f, 3-(4-(2-Methoxyphenyl)-5-thioxo-4,5-dihydro-1H-1,2,4-triazol-3-yl)-2H-chromen-2-one]
Ki [1, 5]: 4060 ± 340 nM | Ki [2, 6]: 690 ± 20 nM | Ki [3, 7]: 61 ± 5 nM | Ki [4, 8]: 280 ± 10 nM

COc1cccc(-n2c(-c3cc4ccccc4oc3=O)n[nH]c2=S)c1 [Compound 3g, 3-(4-(3-Methoxyphenyl)-5-thioxo-4,5-dihydro-1H-1,2,4-triazol-3-yl)-2H-chromen-2-one]
Ki [1, 5]: 980 ± 340 nM | Ki [2, 6]: 22100 ± 200 nM | Ki [3, 7]: 46 ± 2 nM | Ki [4, 8]: 7550 ± 30 nM

O=c1oc2ccccc2cc1-c1nnc(Nc2ccccc2Cl)s1 [Compound 4a, 3-(5-(2-Chlorophenylamino)-1,3,4-thiadiazol-2-yl)-2H-chromen-2-one]
Ki [1, 5]: 5750 ± 780 nM | Ki [2, 6]: 1390 ± 20 nM | Ki [3, 7]: 31 ± 8 nM | Ki [4, 8]: 100 ± 10 nM

O=c1oc2ccccc2cc1-c1nnc(Nc2cccc(Cl)c2)s1 [Compound 4b, 3-(5-(3-Chlorophenylamino)-1,3,4-thiadiazol-2-yl)-2H-chromen-2-one]
Ki [1, 5]: 280 ± 70 nM | Ki [2, 6]: 2260 ± 20 nM | Ki [3, 7]: 28 ± 2 nM | Ki [4, 8]: 540 ± 90 nM | Type of inhibition of AChE (AChE): competitive inhibitor | Type of inhibition of BChE (BChE): competitive inhibitor

O=c1oc2ccccc2cc1-c1nnc(Nc2ccc(Cl)cc2)s1 [Compound 4c, 3-(5-(4-Chlorophenylamino)-1,3,4-thiadiazol-2-yl)-2H-chromen-2-one]
Ki [1, 5]: 48600 ± 4400 nM | Ki [2, 6]: 350 ± 10 nM | Ki [3, 7]: 240 ± 21 nM | Ki [4, 8]: 420 ± 10 nM

Cc1cccc(Nc2nnc(-c3cc4ccccc4oc3=O)s2)c1 [Compound 4d, 3-(5-(m-Toluidino)-1,3,4-thiadiazol-2-yl)-2H-chromen-2-one]
Ki [1, 5]: 28000 ± 1630 nM | Ki [2, 6]: 510 ± 10 nM | Ki [3, 7]: 17 ± 2 nM | Ki [4, 8]: 660 ± 10 nM

Cc1ccc(Nc2nnc(-c3cc4ccccc4oc3=O)s2)cc1 [Compound 4e, 3-(5-(p-Toluidino)-1,3,4-thiadiazol-2-yl)-2H-chromen-2-one]
Ki [1, 5]: 6190 ± 290 nM | Ki [2, 6]: 460 ± 10 nM | Ki [3, 7]: 561 ± 22 nM | Ki [4, 8]: 280 ± 20 nM

COc1ccccc1Nc1nnc(-c2cc3ccccc3oc2=O)s1 [Compound 4f, 3-(5-(2-Methoxyphenylamino)-1,3,4-thiadiazol-2-yl)-2H-chromen-2-one]
Ki [1, 5]: 7160 ± 10 nM | Ki [2, 6]: 1360 ± 30 nM | Ki [3, 7]: 81 ± 1 nM | Ki [4, 8]: 230 ± 10 nM

COc1cccc(Nc2nnc(-c3cc4ccccc4oc3=O)s2)c1 [Compound 4g, 3-(5-(3-Methoxyphenylamino)-1,3,4-thiadiazol-2-yl)-2H-chromen-2-one]
Ki [1, 5]: 8260 ± 10 nM | Ki [2, 6]: 1520 ± 30 nM | Ki [3, 7]: 21 ± 1 nM | Ki [4, 8]: 340 ± 10 nM

CN(C)C(=O)Oc1cccc([N+](C)(C)C)c1 [Neostigmine, neostigmine methylsulfate, reference compound]
Ki [1]: 56 ± 6 nM | Ki [2]: 47 ± 6 nM | Ki [3]: 48 ± 3 nM | Ki [4]: 60 ± 5 nM
